# Reference: US10329336B2, “Antimicrobial kinocidin compositions and methods of use” (LA Biomedical Research Institute at Harbor-UCLA Medical …, priority 2006, dated 2019)
# “Also recorded” adds a separate entry of the source.
# Key:
# [1] = test system: Staphylococcus aureus (ATCC 27217); assay: Solid-phase antimicrobial assay of kinocidins; assay type: cell-based; settings: 0.5 nmol/well
# Procedure: (§1) Peptides (0.5 nmol) were introduced into wells in agarose plates buffered with MES (2.0 mM, pH 5.5) or PIPES (10.0 mM, pH 7.5). Antimicrobial activity was assessed as the zone of complete (blue) or partial (red) inhibition around the well. Abbreviations are: Native IL-8 (IL-8); IL-8α, (α); IL-8γ, (γ); IL-8α+IL-8γ (α+γ); RANTES, (RAN); GRO-α, (GRO); MCP-1, (MCP); lymphotactin, (LYM); platelet factor-4, (PF-4); and HNP-1, (HNP). Histograms are means±SEM (minimum n=2).
# (§2) Briefly, the antimicrobial assays were performed against a panel of prototype human pathogens as previously detailed (Yoshimura, T., Matsushima, K., Tanaka, S., Robinson, E. A., Appella, E., Oppenheim, J. J. & Leonard, E. J. (1987) Proc Natl Acad Sci USA 84, 9233-7): Staphylococcus aureus (ATCC 27217; Gram-positive bacterium); Salmonella typhimurium (5996s; Gram-negative bacterium); and the fungus Candida albicans (ATCC 36082). Defensin HNP-1 was included in each assay as an internal control, and all assays were conducted a minimum of two independent times. Results of independent assays were analyzed using Wilcoxon Rank Sum analysis with Bonferroni correction for multiple comparisons.
# (§3) For the Solid-Phase Assay, mid-logarithmic phase organisms were prepared, introduced into buffered agarose (PIPES [10 mM, pH 7.5] or MES [2.0 mM, pH 5.5]) to achieve final inocula of 10^6 CFU/ml, and poured into plates. Peptides (0.5 nmol/well [50 nmol/ml]) were added to wells in the seeded matrix, and incubated for 3h at 37° C. Nutrient overlay medium was applied, and assays incubated at 37° C. or 30° C. for bacteria or fungi, respectively. After 24h, zones of inhibition were measured, and results recorded as zones of complete or partial inhibition.
# [2] = test system: Candida albicans (ATCC 36082); assay: Solid-phase antimicrobial assay of kinocidins; assay type: cell-based; settings: C. albicans, 0.5 nmol/well
# Procedure: as §1, §2, §3
# [3] = test system: Salmonella typhimurium (5996s); assay: Solid-phase antimicrobial assay of kinocidins; assay type: cell-based; settings: S. typhimurium (Gram-negative); pH 5.5 or 7.5, not separated; 0.5 nmol/well
# Procedure: as §1, §2, §3
# S. typhimurium = assay: Solution-phase microbicidal assay; assay type: cell-based, Salmonella typhimurium; settings: for microbicidal activity: solution-phase, pH 5.5 and 7.5, 1 hour
# Procedure: (§4) One million CFU of the indicated microorganism per milliliter were incubated with peptide (0.00125-20.0 nmol/ml) in either MES (2.0 mM, pH 5.5) or PIPES (10.0 mM, pH 7.5) for one hour at 37° C. Surviving CFU were enumerated and are described as change in the initial log 10 CFU. ∘, S. aureus ATCC 27217; ●, S. typhimurium strain 5990s; □, C. albicans ATCC 36082. Data are means±SD (minimum n=2).
# as §2
# (§5) To characterize IL-8's antimicrobial activity in more detail, a quantitative solution-phase assay was carried out at pH 5.5 and 7.5. Organisms were prepared and adjusted to 10^6 CFU/ml in PIPES or MES buffer as above but lacking agarose, and dispensed (5×10^4 CFU per 50 μl aliquot). Peptide (concentration range, 20-0.00125 nmol/ml) was introduced into the assay medium, and incubated for 1 hour at 37° C. After incubation, media were serially diluted and plated in triplicate for enumeration. […] IL-8 was also fungicidal for C. albicans at pH 7.5, with a 2-log reduction in surviving CFU over 1 hour at a concentration of 2.5 nmol/ml.
# C. albicans ATCC 36082 = assay: Solution-phase microbicidal assay; assay type: cell-based, Candida albicans; settings: C. albicans; for microbicidal (fungicidal) activity: solution-phase, pH 5.5 and 7.5, 1 hour
# Procedure: as §4, §2, §5
# S. aureus ATCC 27217 = assay: Solution-phase microbicidal assay; assay type: cell-based, Staphylococcus aureus; settings: for microbicidal activity: solution-phase, pH 5.5 and 7.5, 1 hour
# Procedure: as §4, §2, §5
# [4] = test system: Staphylococcus aureus (ATCC 27217), Bacillus subtilis (ATCC 6633), Escherichia coli (strain ML-35); assay: Solid-phase radial diffusion assay (signature model validation), bacteria panel; assay type: cell-based; settings: pH 5.5 or pH 7.5, after 24h
# Procedure: (§6) Standard radial diffusion assays were conducted using 10 μg of specified peptide: defensin HNP-1 (HNP); brazzein (BRZ); charybdotoxin (CTX); or metallothionein II (MTL). Recombinant brazzein reflecting the published 3-dimensional structure (1BRZ) as determined by nuclear magnetic resonance spectroscopy was kindly provided by Drs. J. L. Markley and F. M. Assadi-Porter, the University of Wisconsin 25. Charybdotoxin, metallothionein II, and defensin HNP-1 were obtained from commercial sources. Antimicrobial activity was assessed using a well-established solid-phase diffusion method as described by Tang et al., Infect. Immun. 70: 6524-6533 (2002). Assays included well characterized organisms: Staphylococcus aureus (ATCC 27217, Gram-positive coccus); Bacillus subtilis (ATCC 6633, Gram-positive bacillus); Escherichia coli (strain ML-35, Gram-negative bacillus); and Candida albicans (ATCC 36082, fungus). In brief, organisms were cultured to logarithmic phase and inoculated (10^6 colony forming units/ml) into buffered molecular-biology grade agarose at the indicated pH. Peptides resuspended in sterile deionized water were introduced into wells formed in the underlay, and incubated for 3h at 37° C. Nutrient-containing overlay medium was then applied, and assays incubated at 37° C. or 30° C. for bacteria or fungi, respectively. After 24h, zones of complete or partial inhibition were measured. All assays were repeated independently a minimum of two times at pH 5.5 (panels A-D) or pH 7.5 (panels E-H) to assess the influences of pH on peptide antimicrobial activities versus microorganisms. Histograms express mean (±standard deviation) zones of complete (blue) or incomplete (yellow) inhibition of growth. […] Note differences in scale.
# (§7) These peptides were tested for antimicrobial activity against a panel of Gram-positive (Staphylococcus aureus. Bacillus subtilis) and Gram-negative (Escherichia coli) bacteria, and the fungus Candida albicans, using a well-established and sensitive in vitro assay [Antimicrobial activity was assessed using a well-established solid-phase diffusion method. Assays included well-characterized organisms: Staphylococcus aureus (ATCC 27217, Gram-positive); Bacillus subtilis (ATCC 6633, Gram-positive); Escherichia coli (strain ML-35, Gram-negative); and Candida albicans (ATCC 36082, fungus). In brief, organisms were cultured to logarithmic phase and inoculated at a density of 10^6 colony forming units/ml in buffered molecular grade agarose at the indicated pH. […] of peptide resuspended in sterile deionized water were introduced into wells formed in the underlay, and incubated for 3h at 37° C. […] After 24h, zones of complete or partial inhibition were measured. […]
# [5] = test system: Candida albicans (ATCC 36082); assay: Solid-phase radial diffusion assay (signature model validation), fungus; assay type: cell-based; settings: C. albicans, pH 5.5 or pH 7.5, after 24h
# Procedure: as §6, §7
# [6] = S. aureus (Gram-positive), pH 5.5 or 7.5, not separated
molecule,measurement,setting,value
"ANTEIIVKLSDGRELCLDP [IL-8γ, synthetic γ-core domain of IL-8]",antimicrobial activity (zone of inhibition),[1]; [6],no detectable antimicrobial efficacy
same,antifungal activity (zone of inhibition),"[2]; pH 5.5 or 7.5, not separated",no detectable antimicrobial efficacy
same,antimicrobial activity (zone of inhibition),[3],no detectable antimicrobial efficacy
same,microbicidal activity,S. typhimurium,no measurable activity
same,microbicidal (fungicidal) activity,C. albicans ATCC 36082,no measurable activity
same,microbicidal activity,S. aureus ATCC 27217,no measurable activity
"IL-8: recombinant human chemokine interleukin-8, obtained commercially",antimicrobial activity (zone of inhibition),"[1]; S. aureus, pH 5.5",modest activity
same,antifungal activity (zone of inhibition),[2]; pH 5.5,greater than any other kinocidin
same,antifungal activity (zone of inhibition),"[2]; pH 5.5 or 7.5, not separated",striking antifungal activity
same,antifungal activity (zone of inhibition),[2]; pH 7.5,the only kinocidin with anti-candidal activity
same,antimicrobial activity (zone of inhibition),[3],"equivalent to lymphotactin, but more efficacious than any other test kinocidin"
same,activity in solution phase,S. typhimurium; pH 7.5,lacks activity
same,microbicidal activity,S. typhimurium,did not exert microbicidal activity
same,reduction in surviving CFU,"C. albicans ATCC 36082; pH 7.5, 2.5 nmol/ml, over 1 hour",2 log
same,microbicidal (fungicidal) activity,C. albicans ATCC 36082,highly fungicidal
same,activity in solution phase,S. aureus ATCC 27217; pH 7.5,lacks activity
same,microbicidal activity,S. aureus ATCC 27217,did not exert microbicidal activity
"MCP-1: recombinant human chemokine, obtained commercially",antimicrobial activity (zone of inhibition),[1]; [6],significant activity
same,antifungal activity (zone of inhibition),"[2]; pH 5.5 or 7.5, not separated",no measurable antifungal activity
same,antimicrobial activity (zone of inhibition),[3],significant activity
"RANTES: recombinant human chemokine, obtained commercially",antimicrobial activity (zone of inhibition),"[1]; S. aureus, pH 7.5",more efficacious
"brazzein: recombinant sweetener protein from Pentadiplandra (1BRZ) (QDKCKKVYENYPVSKCQLANQCNYDCKLDKHARSGECFYDEKRNLQCICDYCEY; UniProt P56552 1-54, looked up)",antimicrobial activity (zones of complete or partial inhibition),[4],exerted direct antimicrobial activity; also recorded: direct antimicrobial activities
same,antimicrobial activity (zones of complete or partial inhibition),[5],exerted direct antimicrobial activity; also recorded: direct antimicrobial activities
charybdotoxin,antimicrobial activity (zones of complete or partial inhibition),[4],exerted direct antimicrobial activity; also recorded: direct antimicrobial activities
same,antimicrobial activity (zones of complete or partial inhibition),[5],exerted direct antimicrobial activity; also recorded: direct antimicrobial activities
"metallothionein II: comparator predicted to lack antimicrobial activity, from commercial sources",antimicrobial activity (zones of complete or partial inhibition),[4],failed to exert antimicrobial activity
same,antimicrobial activity (zones of complete or partial inhibition),[4]; listed as Metallothionein II,lacked antimicrobial activity
same,antimicrobial activity (zones of complete or partial inhibition),[5],failed to exert antimicrobial activity
same,antimicrobial activity (zones of complete or partial inhibition),[5]; listed as Metallothionein II,lacked antimicrobial activity
"Lymphotactin: recombinant human chemokine, obtained commercially (protein, UniProt P47992 22-114, looked up) Lymphotactin: VGSEVSDKRTCVSLTTQRLPVSRIKTYTITEGSLRAVIFITKRGLKVCADPQATWVRDVVRSMDRKSNTRNNMIQTKPTGTQQSTNTAVTLTG",antimicrobial activity (zone of inhibition),"[1]; S. aureus, pH 7.5",more efficacious
